Data: patent US6906205B2, “Spiro and dispiro 1,2,4-trioxolane antimalarials” (Medicines for Malaria Venture MMV, priority 2002, dated 2005)

Assays:
[1] = system: P. falciparum K1 strain (Thailand resistant to chloroquine); test: semiautomated microdilution assay, [3H]-hypoxanthine incorporation, K1 strain; assay type: cell-based, Plasmodium falciparum; conditions: K1 strain, 72 h incubation
How it was run: (§1)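 Asynchronous stock cultures → intraerythrocytic forms; semiautomated microdilution; IC50 by logit regression.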

[2] = system: P. falciparum NF54 strain (sensitive to standard antimalarials); test: semiautomated microdilution assay, [3H]-hypoxanthine incorporation, NF54 strain; assay type: cell-based, Plasmodium falciparum; conditions: NF54 strain, 72 h incubation
How it was run: as §1

[3] = system: ANKA strain of P. berghei; test: single dose STI in vivo screen in infected mice; design: species or system Plasmodium berghei
How it was run: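 Groups of 3-5 Moro SPF or NMRI mice infected with the ANKA strain of P. berghei received a single dose of trioxolane on day one post-infection. The compound was given in 3% ethanol and 7% Tween 80 or in SSV (0.5% w/v CMC, 0.5% v/v benzyl alcohol, 0.4% v/v Tween 80, 0.9% w/v sodium chloride in water). Antimalarial activity was scored as percent reduction in parasitemia on day three and as survival time versus untreated controls. Survival to day 30 counted as cure.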

[4] = system: parasitemia (malaria infection); test: onset of action and recrudescence experiments; assay type: in vivo; conditions: single 100 mg/kg po (SSV) on day +3 post-infection; recrudescence = >5% parasitemia; followed up to 60 days; (n/5) = animals
Experimental: The onset of drug action was determined after a single fixed dose of 100 mg/kg (SSV vehicle) po to groups of five animals on day +3 post-infection (day 0).

Schistosoma japonicum = test: effect in mice infected with Schistosoma japonicum; assay type: in vivo; conditions: for MFWB/x ± SD (mean female worm burden): control 11.6 ± 2.4; for MTWB/x ± SD (mean total worm burden): control 26.6 ± 4.2
[5] = system: Schistosoma mansoni adult schistosomes (49-day-old); test: effect on adult schistosomes (49-day-old) in mice; assay type: in vivo; conditions: for % reduction of adult worms growth at day 49 after per os application of 400 mg/kg, TWR (%) / adult worms at day 49, per os 400 mg/kg, DEAD WORM (%): single 400 mg/kg per os; for % reduction of adult worms growth at day 49 after per os application of 600 mg/kg, TWR (%) / adult worms at day 49, per os 600 mg/kg, DEAD WORM (%): single 600 mg/kg per os
Experimental: Mice were infected with 100 Schistosoma mansoni cercariae […]. Each group was treated per os with OZ compounds at single doses of 200, 400, and 600 mg/kg. […] All groups were killed 4 weeks after treatment and the liver and intestine were removed and separated. The liver and intestine were compressed and alive male and female worms could be seen and counted.

[6] = system: ANKA strain of Plasmodium berghei; test: single dose ED50/ED90/ED99 determinations in infected mice; assay type: in vivo; conditions: single dose po in SSV, mice, percent reduction in parasitemia on day three post-infection
How it was run: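 Mice (Moro SPF or NMRI, n=3 per group) infected with P. berghei ANKA received a single dose on day 1 post-infection, vehicle 0.5% CMC/0.5% benzyl alcohol/0.4% Tween 80/0.9% NaCl in water. Read-out is percent reduction in parasitemia on day 3; ED values by nonlinear fitting.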

[7] = system: Schistosoma mansoni 21-day-old schistosomules; test: effect on 21-day-old schistosomules in mice; assay type: in vivo; conditions: single 200 mg/kg per os, female mice
Experimental: All groups were killed 4 weeks after treatment and the liver and intestine were removed and separated. The liver and intestine were compressed and alive male and female worms could be seen and counted. The effect of the compounds was evaluated by mean total and female worm burden.

dosing in rats = assay type: in vivo; conditions: rat; for IV t1/2 (10 mg/kg): IV 10 mg/kg; for Oral Bioavailability 10 mg/kg: oral 10 mg/kg; for Oral Bioavailability 25 mg/kg / Oral t1/2 (25 mg/kg): oral 25 mg/kg
Description: (§2) Artesunate is listed as a reference compound.

dosing in dogs = assay type: in vivo; conditions: dog; for IV t1/2 (10 mg/kg): IV 10 mg/kg; for Oral t1/2 (10 mg/kg) / Oral Bioavailability 10 mg/kg: oral 10 mg/kg; for Oral Bioavailability 10 mg/kg / Oral Bioavailability 25 mg/kg: OZ 279, OZ 256, OZ 209 values flagged (V); for Oral Bioavailability 25 mg/kg: oral 25 mg/kg
Description: as §2

[8] = system: Schistosoma mansoni adult schistosomes (49-day-old); test: effect on adult schistosomes (49-day-old) in mice; assay type: in vivo; conditions: 1 × 600 mg/kg sc.
[9] = age of worm 7 days, 200 mg/kg x 1
[10] = age of worm 35 days, 200 mg/kg x 1
[11] = age of worm 35 days, 400 mg/kg x 1

Cc1ccc(S(=O)(=O)O)cc1.NC[C@H]1CC[C@]2(CC1)OOC1(O2)C2CC3CC(C2)CC1C3 (stereo partly drawn) [OZ207]
IC50 (ng/ml) K1 [1]: 0.33 ng/mL
IC50 (ng/ml) NF54 [2]: 0.57 ng/mL
Activity (%) po ([3]; percent reduction in parasitemia day 3 post-infection, single 10 mg/kg po in 3% ethanol and 7% Tween 80, mice): 99.96%
Activity (%) sc ([3]; percent reduction in parasitemia day 3 post-infection, single 10 mg/kg sc in 3% ethanol and 7% Tween 80, mice): 99.98%
Activity (%) SSVpo ([3]; percent reduction in parasitemia day 3 post-infection, single po dose in standard suspending vehicle (SSV), mice): 99.98%
Survival (days) po ([3]; single 10 mg/kg po in 3% ethanol and 7% Tween 80, untreated control 5.6 ± 0.3): 9.3 days
Survival (days) sc ([3]; single 10 mg/kg sc in 3% ethanol and 7% Tween 80, untreated control 5.6 ± 0.3): 11.3 days
Survival (days) SSVpo ([3]; single po dose in SSV, untreated control 5.6 ± 0.3): 12.0 days
Time of Recrudescence (days) [4]: no recrudescence
Mice without ♀ worm (Schistosoma japonicum; [9]): 0/8
MFWB/x ± SD (mean female worm burden) (Schistosoma japonicum; [9]): 2.1 ± 1.0
MTWB/x ± SD (mean total worm burden) (Schistosoma japonicum; [9]): 5.4 ± 2.4
FWRR/% (female worm reduction rate) (Schistosoma japonicum; [10]): 95%
Mice without ♀ worm (Schistosoma japonicum; [10]): 4/7
WRR/% (worm reduction rate) (Schistosoma japonicum; [10]): 66%
MFWB/x ± SD (mean female worm burden) (Schistosoma japonicum; [10]): 0.6 ± 0.7
MTWB/x ± SD (mean total worm burden) (Schistosoma japonicum; [10]): 9.1 ± 3.9
FWRR/% (female worm reduction rate) (Schistosoma japonicum; [11]): 94%
Mice without ♀ worm (Schistosoma japonicum; [11]): 4/6
MFWB/x ± SD (mean female worm burden) (Schistosoma japonicum; [11]): 0.7 ± 1.2
MTWB/x ± SD (mean total worm burden) (Schistosoma japonicum; [11]): 4.3 ± 1.2
Tox (mice) ([5]; 600 mg/kg per os, infected mice): Tox: ++2/5
% reduction of adult worms growth at day 49 after per os application of 200 mg/kg, TWR (%) ([5]; single 200 mg/kg per os): 32%
adult worms at day 49, per os 200 mg/kg, DEAD WORM (%) ([5]; single 200 mg/kg per os): 17%
% reduction of adult worms growth at day 49 after per os application of 400 mg/kg, TWR (%) [5]: 35%
adult worms at day 49, per os 400 mg/kg, DEAD WORM (%) [5]: 21%
% reduction of adult worms growth at day 49 after per os application of 600 mg/kg, TWR (%) [5]: 11%
adult worms at day 49, per os 600 mg/kg, DEAD WORM (%) [5]: 24%
ED50 [6]: 0.37 mg/kg
ED90 [6]: 1.2 mg/kg
ED99 [6]: 3.0 mg/kg

CC(C)(N)CNC(=O)C[C@H]1CC[C@]2(CC1)OO[C@]1(O2)C2CC3CC(C2)CC1C3 [OZ277]
Activity (%) 3 mg/kg SSV po ([3]; percent reduction in parasitemia day 3 post-infection, single 3 mg/kg po in SSV): 99.28%
Activity (%) 10 mg/kg SSV po ([3]; percent reduction in parasitemia day 3 post-infection, single 10 mg/kg po in SSV): 99.98%
Survival (days) 10 mg/kg SSV po ([3]; single 10 mg/kg po in SSV): 9.3 days
Time of Recrudescence [4]: 13.0 days
% reduction of schistosomule growth at day 21 after per os application of 200 mg/kg, FWR (%) [7]: 92%
% reduction of schistosomule growth at day 21 after per os application of 200 mg/kg, TWR (%) [7]: 91%
% reduction of adult worms growth at day 49 after per os application of 400 mg/kg, TWR (%) [5]: 0/0%
adult worms at day 49, per os 400 mg/kg, DEAD WORM (%) [5]: 0/0%
% reduction of adult worms growth at day 49 after per os application of 600 mg/kg, TWR (%) [5]: 17%
adult worms at day 49, per os 600 mg/kg, DEAD WORM (%) [5]: 14%
ED50 [6]: 0.78 mg/kg
ED90 [6]: 2.0 mg/kg
ED99 [6]: 4.4 mg/kg
IV t1/2 (10 mg/kg) (dosing in rats): 77.2 min
Oral Bioavailability 10 mg/kg (dosing in rats): 36.9%
Oral Bioavailability 25 mg/kg (dosing in rats): 44.1%
Oral t1/2 (25 mg/kg) (dosing in rats): 90.5 min
IV t1/2 (10 mg/kg) (dosing in dogs): 95.0 min
Oral t1/2 (10 mg/kg) (dosing in dogs): 148.1 min
Oral Bioavailability 10 mg/kg (dosing in dogs): 87.9%
Oral Bioavailability 25 mg/kg (dosing in dogs): 96.1%
% reduction of adult worms growth, 1 × 600 sc., TWR (%) [8]: 39%
adult worms, 1 × 600 sc., DEAD WORM (%) [8]: 17%

Cc1ccc(S(=O)(=O)O)cc1.O=C(C[C@H]1CC[C@]2(CC1)OO[C@]1(O2)C2CC3CC(C2)CC1C3)N1CCNCC1 [OZ279]
IC50 (ng/ml) K1 [1]: 0.21 ng/mL
IC50 (ng/ml) NF54 [2]: 0.24 ng/mL
Survival (days) 3 mg/kg SSV po ([3]; single 3 mg/kg po in SSV): 8.4 days
Survival (days) 10 mg/kg SSV po ([3]; single 10 mg/kg po in SSV): 9.3 days
Time of Recrudescence [4]: 15.0 days
% reduction of schistosomule growth at day 21 after per os application of 200 mg/kg, FWR (%) [7]: 88%
% reduction of schistosomule growth at day 21 after per os application of 200 mg/kg, TWR (%) [7]: 86%
% reduction of adult worms growth at day 49 after per os application of 400 mg/kg, TWR (%) [5]: 0%
adult worms at day 49, per os 400 mg/kg, DEAD WORM (%) [5]: 12%
% reduction of adult worms growth at day 49 after per os application of 600 mg/kg, TWR (%) [5]: 33%
adult worms at day 49, per os 600 mg/kg, DEAD WORM (%) [5]: 20%
ED50 [6]: 0.63 mg/kg
ED90 [6]: 1.8 mg/kg
ED99 [6]: 3.9 mg/kg
IV t1/2 (10 mg/kg) (dosing in rats): 100.5 min
Oral Bioavailability 10 mg/kg (dosing in rats): 37.2%
Oral Bioavailability 25 mg/kg (dosing in rats): 71.1%
Oral t1/2 (25 mg/kg) (dosing in rats): 166.8 min
IV t1/2 (10 mg/kg) (dosing in dogs): 177.5 min
Oral t1/2 (10 mg/kg) (dosing in dogs): 195.3 min
Oral Bioavailability 10 mg/kg (dosing in dogs): 32.8%
Oral Bioavailability 25 mg/kg (dosing in dogs): 55.7%
% reduction of adult worms growth, 1 × 600 sc., TWR (%) [8]: 21%
adult worms, 1 × 600 sc., DEAD WORM (%) [8]: 27%
